# What was measured:
# [1] = target: T1, PDE10 (Rattus norvegicus, UniProt Q9QYJ6); test: PDE10 occupancy ([3H]-MP-10, striatum); type: in vivo; conditions: rat, sc; occupancy, administered s.c.; read-out: Occ. ED50
# T1 construct: from tissue; host or cells: rat brain sections, striatum (ex vivo autoradiography after in vivo dosing)
# T1 sequence (Q9QYJ6 1-794): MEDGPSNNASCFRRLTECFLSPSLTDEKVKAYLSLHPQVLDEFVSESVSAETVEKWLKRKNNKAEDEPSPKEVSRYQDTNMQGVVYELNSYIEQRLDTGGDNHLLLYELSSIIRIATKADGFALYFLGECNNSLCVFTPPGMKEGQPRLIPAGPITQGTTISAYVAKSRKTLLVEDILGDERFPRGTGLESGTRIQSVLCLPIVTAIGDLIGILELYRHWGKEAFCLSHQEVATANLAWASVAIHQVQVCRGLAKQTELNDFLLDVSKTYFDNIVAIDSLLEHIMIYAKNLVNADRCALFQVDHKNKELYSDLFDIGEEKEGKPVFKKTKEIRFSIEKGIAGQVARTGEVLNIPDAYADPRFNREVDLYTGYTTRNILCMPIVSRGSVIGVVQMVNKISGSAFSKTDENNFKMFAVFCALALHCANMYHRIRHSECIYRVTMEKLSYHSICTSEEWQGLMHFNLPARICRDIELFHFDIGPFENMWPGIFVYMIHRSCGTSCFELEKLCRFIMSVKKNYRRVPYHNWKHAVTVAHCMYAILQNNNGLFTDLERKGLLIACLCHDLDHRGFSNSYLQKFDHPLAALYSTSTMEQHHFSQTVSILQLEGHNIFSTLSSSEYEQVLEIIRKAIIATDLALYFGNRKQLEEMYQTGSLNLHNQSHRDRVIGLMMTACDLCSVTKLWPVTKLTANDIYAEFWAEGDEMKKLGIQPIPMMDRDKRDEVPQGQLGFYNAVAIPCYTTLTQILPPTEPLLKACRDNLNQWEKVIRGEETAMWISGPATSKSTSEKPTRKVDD
# Experimental: Dose-response or single dose experiments were performed to measure PDE10 occupancy 1 hour after subcutaneous (s.c.) or oral (p.o.) administration. Male Wistar rats (200 g) were treated by s.c. or p.o. administration of various PDE10 inhibitors. The PDE10 radioligand [^3H]-MP-10 (10 μCi/animal) was injected intravenously (i.v.) 30 minutes before sacrifice. Brains were immediately removed from the skull and rapidly frozen. Twenty μm-thick brain sections were cut using a cryostat-microtome, thaw-mounted on microscope slides and loaded in a β-imager to quantify PDE10 occupancy in the striatum.
# [2] = system: PCP-induced hyperlocomotion; test: PCP-induced hyperlocomotion in rats (PCP); type: in vivo; conditions: Rattus norvegicus
# [3] = target: PDE8A1 (Homo sapiens, UniProt O60658); test: In vitro PDE selectivity assay, PDE8A; type: biochemical; conditions: Table 4a in vitro selectivity; read-out: IC50 PDE type 8A
# Experimental: (§1) Rat recombinant PDE10A (rPDE10A2) was expressed in Sf9 cells using a recombinant rPDE10A baculovirus construct. Cells were harvested after 48 h of infection and the rPDE10A protein was purified by metal chelate chromatography on Ni-sepharose 6FF. […] The reaction was incubated for 60 min. at RT. […] After sedimentation of the beads during 30 min. the radioactivity was measured in a Perkin Elmer Topcount scintillation counter and results were expressed as cpm. For blank values the enzyme was omitted from the reaction and replaced by incubation buffer. […] The same assay principle is applied for the measurement of the affinity of the compound for other members of the PDE family with appropriate modifications in incubation buffer, substrate concentration, incubation time and stop solution.
# [4] = target: PDE7A (Homo sapiens, UniProt Q13946); test: In vitro PDE selectivity assay, PDE7A; type: biochemical; conditions: Table 4a in vitro selectivity; read-out: IC50 PDE type 7A
# Experimental: as §1
# [5] = target: PDE5A (Homo sapiens, UniProt O76074); test: In vitro PDE selectivity assay, PDE5A; type: biochemical; conditions: Table 4a in vitro selectivity; read-out: IC50 PDE type 5A
# Experimental: as §1
# [6] = system: SCH-23390-induced hypolocomotion; test: SCH-23390-induced hypolocomotion in mice; type: in vivo; conditions: Mus musculus; male NMRI mice, pretreated 0.5 h earlier; criterion total distance >2500 counts; read-out: ED50 reversal of SCH-23390-induced hypolocomotion
# Experimental: SCH-23390-Induced Hypolocomotion in Mice
# SCM-23390 (0.08 mg/kg, i.v.)-induced hypolocomotion was evaluated over a 30-min period starting immediately after the SCH-23390 challenge in male NMRI mice pretreated 0.5 h earlier with test compound or solvent. Averaged activity in solvent-treated control mice was 1540±559 counts (mean±SD; n=103). Criterion for drug-induced reversal of the SCH-23390-induced hypolocomotion: total distance: >2500 counts (2.9% false positives in controls).
# [7] = target: PDE6AB (Homo sapiens, UniProt P16499+P35913); test: In vitro PDE selectivity assay, PDE6AB; type: biochemical; conditions: Table 4a in vitro selectivity; read-out: IC50 PDE type 6AB
# Experimental: as §1
# Sequence of PDE6AB (P16499 whole entry): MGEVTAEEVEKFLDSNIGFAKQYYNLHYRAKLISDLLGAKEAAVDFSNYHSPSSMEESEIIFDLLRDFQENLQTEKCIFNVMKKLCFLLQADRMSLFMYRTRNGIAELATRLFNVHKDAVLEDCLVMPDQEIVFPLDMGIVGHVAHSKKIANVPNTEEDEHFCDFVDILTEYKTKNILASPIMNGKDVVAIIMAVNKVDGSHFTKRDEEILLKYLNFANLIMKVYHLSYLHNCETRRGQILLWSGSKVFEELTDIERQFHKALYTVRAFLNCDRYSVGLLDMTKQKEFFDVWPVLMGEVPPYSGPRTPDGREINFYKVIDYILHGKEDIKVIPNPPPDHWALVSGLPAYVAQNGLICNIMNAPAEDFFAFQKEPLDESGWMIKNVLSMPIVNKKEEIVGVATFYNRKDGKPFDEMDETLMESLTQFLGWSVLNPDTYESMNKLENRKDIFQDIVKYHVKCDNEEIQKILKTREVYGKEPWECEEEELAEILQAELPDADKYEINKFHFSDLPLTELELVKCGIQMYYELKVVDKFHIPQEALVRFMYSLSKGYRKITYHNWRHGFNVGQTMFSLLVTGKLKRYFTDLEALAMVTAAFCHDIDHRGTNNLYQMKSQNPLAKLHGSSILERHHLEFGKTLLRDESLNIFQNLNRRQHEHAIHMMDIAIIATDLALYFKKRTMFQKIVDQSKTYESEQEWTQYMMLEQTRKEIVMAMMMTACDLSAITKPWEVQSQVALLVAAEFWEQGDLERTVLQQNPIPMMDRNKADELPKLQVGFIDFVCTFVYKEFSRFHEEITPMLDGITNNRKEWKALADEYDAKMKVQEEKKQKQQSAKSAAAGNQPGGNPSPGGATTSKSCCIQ
# Sequence of PDE6AB (P35913 whole entry): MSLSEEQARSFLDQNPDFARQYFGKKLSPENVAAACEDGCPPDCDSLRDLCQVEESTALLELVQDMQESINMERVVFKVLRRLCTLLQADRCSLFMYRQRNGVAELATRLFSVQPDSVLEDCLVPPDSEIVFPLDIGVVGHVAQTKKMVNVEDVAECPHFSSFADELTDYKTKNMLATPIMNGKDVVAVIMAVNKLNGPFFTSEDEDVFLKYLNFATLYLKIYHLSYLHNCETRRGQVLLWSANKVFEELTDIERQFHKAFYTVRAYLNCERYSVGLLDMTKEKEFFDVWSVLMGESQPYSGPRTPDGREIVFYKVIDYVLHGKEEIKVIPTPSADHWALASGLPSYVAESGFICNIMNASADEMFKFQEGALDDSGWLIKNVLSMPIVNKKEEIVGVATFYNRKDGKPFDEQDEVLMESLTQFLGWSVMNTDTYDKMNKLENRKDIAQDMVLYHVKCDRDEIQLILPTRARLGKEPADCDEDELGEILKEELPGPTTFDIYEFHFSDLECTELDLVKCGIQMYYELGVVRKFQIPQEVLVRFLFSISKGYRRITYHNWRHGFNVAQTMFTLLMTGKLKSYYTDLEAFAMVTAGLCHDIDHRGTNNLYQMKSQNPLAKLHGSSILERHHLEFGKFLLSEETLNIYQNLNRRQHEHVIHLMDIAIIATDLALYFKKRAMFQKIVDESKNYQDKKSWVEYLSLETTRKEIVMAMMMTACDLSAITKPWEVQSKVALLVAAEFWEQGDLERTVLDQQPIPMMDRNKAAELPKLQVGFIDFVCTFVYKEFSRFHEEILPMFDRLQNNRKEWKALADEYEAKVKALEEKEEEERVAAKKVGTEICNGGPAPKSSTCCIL
# Sequence of PDE8A1 (O60658 whole entry, species assumed): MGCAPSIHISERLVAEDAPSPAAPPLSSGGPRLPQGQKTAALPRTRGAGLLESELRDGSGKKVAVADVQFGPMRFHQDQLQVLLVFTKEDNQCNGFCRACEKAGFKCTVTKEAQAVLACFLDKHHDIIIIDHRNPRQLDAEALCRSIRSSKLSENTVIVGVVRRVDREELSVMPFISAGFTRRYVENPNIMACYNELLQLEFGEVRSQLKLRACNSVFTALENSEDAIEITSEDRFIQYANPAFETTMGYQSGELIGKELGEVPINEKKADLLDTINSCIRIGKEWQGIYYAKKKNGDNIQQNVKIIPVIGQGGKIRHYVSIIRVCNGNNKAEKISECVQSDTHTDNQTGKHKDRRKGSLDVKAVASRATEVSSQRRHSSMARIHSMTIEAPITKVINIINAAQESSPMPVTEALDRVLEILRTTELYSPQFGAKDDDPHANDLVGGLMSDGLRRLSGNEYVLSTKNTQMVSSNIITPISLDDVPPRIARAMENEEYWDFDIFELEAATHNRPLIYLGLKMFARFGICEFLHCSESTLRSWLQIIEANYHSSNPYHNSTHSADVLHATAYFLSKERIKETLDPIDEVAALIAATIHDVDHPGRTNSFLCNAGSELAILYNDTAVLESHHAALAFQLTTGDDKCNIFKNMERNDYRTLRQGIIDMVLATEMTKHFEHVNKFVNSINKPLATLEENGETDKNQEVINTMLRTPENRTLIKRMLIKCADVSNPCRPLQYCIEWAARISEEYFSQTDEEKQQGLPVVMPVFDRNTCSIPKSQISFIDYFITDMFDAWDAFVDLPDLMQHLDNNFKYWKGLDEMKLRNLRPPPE
# Sequence of PDE7A (Q13946 whole entry, species assumed): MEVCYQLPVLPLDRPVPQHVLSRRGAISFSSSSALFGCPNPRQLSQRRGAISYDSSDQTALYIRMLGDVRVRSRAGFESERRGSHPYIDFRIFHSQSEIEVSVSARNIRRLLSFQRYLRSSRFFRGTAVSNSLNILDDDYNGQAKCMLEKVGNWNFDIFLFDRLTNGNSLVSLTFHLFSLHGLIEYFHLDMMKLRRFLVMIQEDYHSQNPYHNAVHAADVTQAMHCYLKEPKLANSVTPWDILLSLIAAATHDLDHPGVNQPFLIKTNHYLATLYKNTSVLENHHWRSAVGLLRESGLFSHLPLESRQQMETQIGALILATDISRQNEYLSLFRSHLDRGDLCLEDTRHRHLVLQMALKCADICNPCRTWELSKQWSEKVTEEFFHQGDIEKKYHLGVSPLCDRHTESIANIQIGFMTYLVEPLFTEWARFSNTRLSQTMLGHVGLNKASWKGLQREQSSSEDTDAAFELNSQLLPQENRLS
structure (smiles),measurement,setting,value
"Cc1nc2c(N3CCOCC3)nccn2c1-c1ccc(C2CCOCC2)nc1 [compound 25, 2-Methyl-8-morpholin-4-yl-3-[6-(tetrahydro-pyran-4-yl)-pyridin-3-yl]-imidazo[1,2-a]pyrazine]",ED50,[1],4.6 mg/kg
same,ED50,[2],2 mg/kg
same,IC50,[3],> 100 µM
same,IC50,[4],> 100 µM
same,IC50,[5],33.9 µM
same,ED50,[6],7.1 mg/kg
same,IC50,[7],96.5 µM

# Reference: US8859543B2, “Imidazo[1,2-a]pyrazine derivatives and their use for the prevention or treatment of neurological, psychiatric and metabolic disorders and diseases” (Janssen Pharmaceutica NV, priority 2010, dated 2014)
